# Where two headings read alike, the source gives them in different places.
# Tests used:
# Assay in all cases: KinomeScan kinase panel, single concentration 10 µM
# Assay type in all cases: binding
# KinomeScan kinase panel [1] = biological target: T1, KinomeScan kinase panel (Homo sapiens, UniProt O75747); conditions: PIK3C2G, 10 µM; read-out: score (%)
# T1 construct: purchased DiscoveRx (KinomeScan)
# KinomeScan kinase panel [2] = biological target: T2, KinomeScan kinase panel (Homo sapiens, UniProt O95382); conditions: ASK2, 10 µM; read-out: score (%)
# T2 construct: purchased DiscoveRx (KinomeScan)
# KinomeScan kinase panel [3] = biological target: T3, KinomeScan kinase panel (Homo sapiens, UniProt O95747); conditions: OSR1, 10 µM; read-out: score (%)
# T3 construct: purchased DiscoveRx (KinomeScan)
# KinomeScan kinase panel [4] = biological target: T4, KinomeScan kinase panel (Homo sapiens, UniProt P21860); conditions: ERBB3, 10 µM; read-out: score (%)
# T4 construct: purchased DiscoveRx (KinomeScan)
# KinomeScan kinase panel [5] = biological target: T5, KinomeScan kinase panel (Homo sapiens, UniProt P42336, E542K); conditions: PIK3CA(E542K), 10 µM; read-out: score (%)
# T5 construct: purchased DiscoveRx (KinomeScan)
# KinomeScan kinase panel [6] = biological target: T6, KinomeScan kinase panel (Homo sapiens, UniProt P51617); conditions: IRAK1, 10 µM; read-out: score (%)
# T6 construct: purchased DiscoveRx (KinomeScan)
# KinomeScan kinase panel [7] = biological target: T7, KinomeScan kinase panel (Homo sapiens, UniProt Q13233); conditions: MAP3K1, 10 µM; read-out: score (%)
# T7 construct: purchased DiscoveRx (KinomeScan)
# KinomeScan kinase panel [8] = biological target: T8, KinomeScan kinase panel (Homo sapiens, UniProt Q13627); conditions: DYRK1A, 10 µM; read-out: score (%)
# T8 construct: purchased DiscoveRx (KinomeScan)
# KinomeScan kinase panel [9] = biological target: T9, KinomeScan kinase panel (Homo sapiens, UniProt Q8NE63); conditions: HIPK4, 10 µM; read-out: score (%)
# T9 construct: purchased DiscoveRx (KinomeScan)
# KinomeScan kinase panel [10] = biological target: T10, KinomeScan kinase panel (Homo sapiens, UniProt Q9H422); conditions: HIPK3, 10 µM; read-out: score (%)
# T10 construct: purchased DiscoveRx (KinomeScan)
# KinomeScan kinase panel [11] = biological target: T11, KinomeScan kinase panel (Homo sapiens, UniProt Q9UEW8); conditions: kinase STK39; 10 µM; read-out: score (%)
# T11 construct: purchased DiscoveRx (KinomeScan)
# KinomeScan kinase panel [12] = biological target: T12, KinomeScan kinase panel (Homo sapiens, UniProt Q9Y2U5); conditions: MAP3K2, 10 µM; read-out: score (%)
# T12 construct: purchased DiscoveRx (KinomeScan)
# KinomeScan kinase panel [13] = biological target: T13, KinomeScan kinase panel (Homo sapiens, UniProt P53779); conditions: JNK3, 10 µM
# T13 construct: purchased DiscoveRx (KinomeScan)
# KinomeScan kinase panel [14] = biological target: T14, KinomeScan kinase panel (Homo sapiens, UniProt O14936); conditions: CASK, 10 µM; read-out: score (%)
# T14 construct: purchased DiscoveRx (KinomeScan)
# KinomeScan kinase panel [15] = biological target: T15, KinomeScan kinase panel (Homo sapiens, UniProt P10721, A829P); conditions: KIT(A829P), 10 µM; read-out: score (%)
# T15 construct: purchased DiscoveRx (KinomeScan)
# KinomeScan kinase panel [16] = biological target: T16, KinomeScan kinase panel (Homo sapiens, UniProt P10721, D816H); conditions: KIT(D816H), 10 µM; read-out: score (%)
# T16 construct: purchased DiscoveRx (KinomeScan)
# KinomeScan kinase panel [17] = biological target: T17, KinomeScan kinase panel (Homo sapiens, UniProt P11802); conditions: read-out: score (%)
# T17 construct: purchased DiscoveRx (KinomeScan)
# KinomeScan kinase panel [18] = biological target: T18, KinomeScan kinase panel (Homo sapiens, UniProt P23443); conditions: kinase S6K1; 10 µM; read-out: score (%)
# T18 construct: purchased DiscoveRx (KinomeScan)
# KinomeScan kinase panel [19] = biological target: T19, KinomeScan kinase panel (Homo sapiens, UniProt P41743); conditions: kinase PRKCI; 10 µM; read-out: score (%)
# T19 construct: purchased DiscoveRx (KinomeScan)
# KinomeScan kinase panel [20] = biological target: T20, KinomeScan kinase panel (Homo sapiens, UniProt P42345); conditions: MTOR, 10 µM; read-out: score (%)
# T20 construct: purchased DiscoveRx (KinomeScan)
# KinomeScan kinase panel [21] = biological target: T21, KinomeScan kinase panel (Homo sapiens, UniProt P51956); conditions: NEK3, 10 µM; read-out: score (%)
# T21 construct: purchased DiscoveRx (KinomeScan)
# KinomeScan kinase panel [22] = biological target: T22, KinomeScan kinase panel (Homo sapiens, UniProt P51957); conditions: NEK4, 10 µM; read-out: score (%)
# T22 construct: purchased DiscoveRx (KinomeScan)
# KinomeScan kinase panel [23] = biological target: T23, KinomeScan kinase panel (Homo sapiens, UniProt Q14004); conditions: CDC2L5, 10 µM
# T23 construct: purchased DiscoveRx (KinomeScan)
# KinomeScan kinase panel [24] = biological target: T24, KinomeScan kinase panel (Homo sapiens, UniProt Q5S007); conditions: LRRK2, 10 µM; read-out: score (%)
# T24 construct: purchased DiscoveRx (KinomeScan)
# KinomeScan kinase panel [25] = biological target: T25, KinomeScan kinase panel (Homo sapiens, UniProt Q5S007, G2019S); conditions: LRRK2(G2019S), 10 µM; read-out: score (%)
# T25 construct: purchased DiscoveRx (KinomeScan)
# KinomeScan kinase panel [26] = biological target: T26, KinomeScan kinase panel (Homo sapiens, UniProt Q86Y07); conditions: kinase VRK2; 10 µM; read-out: score (%)
# T26 construct: purchased DiscoveRx (KinomeScan)
# KinomeScan kinase panel [27] = biological target: T27, KinomeScan kinase panel (Homo sapiens, UniProt Q8NG66); conditions: NEK11, 10 µM; read-out: score (%)
# T27 construct: purchased DiscoveRx (KinomeScan)
# KinomeScan kinase panel [28] = biological target: T28, KinomeScan kinase panel (Homo sapiens, UniProt Q8TBX8); conditions: PIP5K2C, 10 µM; read-out: score (%)
# T28 construct: purchased DiscoveRx (KinomeScan)
# KinomeScan kinase panel [29] = biological target: T29, KinomeScan kinase panel (Homo sapiens, UniProt Q96BR1); conditions: kinase SGK3; 10 µM; read-out: score (%)
# T29 construct: purchased DiscoveRx (KinomeScan)
# KinomeScan kinase panel [30] = biological target: T30, KinomeScan kinase panel (Homo sapiens, UniProt Q9NRH2); conditions: kinase SNRK; 10 µM; read-out: score (%)
# T30 construct: purchased DiscoveRx (KinomeScan)
# KinomeScan kinase panel [31] = biological target: T31, KinomeScan kinase panel (Homo sapiens, UniProt Q9NWZ3); conditions: IRAK4, 10 µM
# T31 construct: purchased DiscoveRx (KinomeScan)
# KinomeScan kinase panel [32] = biological target: T32, KinomeScan kinase panel (Homo sapiens, UniProt Q9UL54); conditions: kinase TAOK2; 10 µM; read-out: score (%)
# T32 construct: purchased DiscoveRx (KinomeScan)
# KinomeScan kinase panel [33] = biological target: T33, KinomeScan kinase panel (Plasmodium falciparum, UniProt P62344); conditions: PFCDPK1(P.falciparum), 10 µM; read-out: score (%)
# T33 construct: purchased DiscoveRx (KinomeScan)
# T12 sequence (Q9Y2U5 whole entry): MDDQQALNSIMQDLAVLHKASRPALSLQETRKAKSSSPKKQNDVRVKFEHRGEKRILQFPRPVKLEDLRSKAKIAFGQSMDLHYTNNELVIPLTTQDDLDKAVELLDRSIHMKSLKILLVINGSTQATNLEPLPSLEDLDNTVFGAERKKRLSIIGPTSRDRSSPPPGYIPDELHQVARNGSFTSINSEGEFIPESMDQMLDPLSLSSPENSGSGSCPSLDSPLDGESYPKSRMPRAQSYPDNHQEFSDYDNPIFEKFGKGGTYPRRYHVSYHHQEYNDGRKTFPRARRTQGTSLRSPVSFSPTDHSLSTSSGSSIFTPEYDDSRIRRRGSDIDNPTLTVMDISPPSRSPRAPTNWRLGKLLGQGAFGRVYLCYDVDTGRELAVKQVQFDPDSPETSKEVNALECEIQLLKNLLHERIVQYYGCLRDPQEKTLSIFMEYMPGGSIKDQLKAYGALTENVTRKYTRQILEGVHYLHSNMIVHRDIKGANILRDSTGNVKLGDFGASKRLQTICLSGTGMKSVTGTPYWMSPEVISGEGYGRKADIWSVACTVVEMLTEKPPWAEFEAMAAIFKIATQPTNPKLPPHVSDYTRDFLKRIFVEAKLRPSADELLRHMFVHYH
# T2 sequence (O95382 whole entry): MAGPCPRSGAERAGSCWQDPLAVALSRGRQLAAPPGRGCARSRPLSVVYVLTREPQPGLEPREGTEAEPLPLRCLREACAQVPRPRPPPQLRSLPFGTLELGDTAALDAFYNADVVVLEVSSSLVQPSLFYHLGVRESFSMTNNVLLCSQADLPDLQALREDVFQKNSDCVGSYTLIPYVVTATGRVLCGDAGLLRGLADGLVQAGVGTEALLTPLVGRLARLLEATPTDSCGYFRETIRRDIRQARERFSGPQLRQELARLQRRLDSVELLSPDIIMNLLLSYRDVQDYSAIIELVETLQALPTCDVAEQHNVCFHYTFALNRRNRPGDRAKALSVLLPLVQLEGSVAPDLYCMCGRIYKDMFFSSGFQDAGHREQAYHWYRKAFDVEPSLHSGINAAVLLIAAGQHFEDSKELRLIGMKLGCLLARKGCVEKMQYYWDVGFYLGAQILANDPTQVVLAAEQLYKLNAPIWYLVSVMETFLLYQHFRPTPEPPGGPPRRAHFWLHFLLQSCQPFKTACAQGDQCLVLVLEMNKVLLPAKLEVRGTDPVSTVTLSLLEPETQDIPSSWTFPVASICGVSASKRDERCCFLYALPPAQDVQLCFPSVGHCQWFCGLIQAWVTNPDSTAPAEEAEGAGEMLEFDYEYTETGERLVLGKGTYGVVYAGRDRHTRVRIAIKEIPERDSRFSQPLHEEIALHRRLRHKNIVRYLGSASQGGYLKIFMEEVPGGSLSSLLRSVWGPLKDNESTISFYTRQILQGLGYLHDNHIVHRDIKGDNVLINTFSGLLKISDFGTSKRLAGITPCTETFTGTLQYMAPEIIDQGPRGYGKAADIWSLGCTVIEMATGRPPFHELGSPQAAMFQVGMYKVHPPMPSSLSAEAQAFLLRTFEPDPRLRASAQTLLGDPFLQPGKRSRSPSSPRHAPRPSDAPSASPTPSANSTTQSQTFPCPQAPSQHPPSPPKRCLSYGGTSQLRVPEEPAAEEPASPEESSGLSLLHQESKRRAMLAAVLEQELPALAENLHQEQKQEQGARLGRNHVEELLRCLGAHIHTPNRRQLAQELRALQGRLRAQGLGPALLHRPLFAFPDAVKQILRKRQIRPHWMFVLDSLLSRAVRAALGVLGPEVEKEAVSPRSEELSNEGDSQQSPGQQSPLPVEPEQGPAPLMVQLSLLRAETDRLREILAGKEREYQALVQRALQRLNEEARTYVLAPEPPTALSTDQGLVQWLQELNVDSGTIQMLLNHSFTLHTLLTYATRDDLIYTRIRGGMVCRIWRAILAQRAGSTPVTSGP
# T1 sequence (O75747 whole entry): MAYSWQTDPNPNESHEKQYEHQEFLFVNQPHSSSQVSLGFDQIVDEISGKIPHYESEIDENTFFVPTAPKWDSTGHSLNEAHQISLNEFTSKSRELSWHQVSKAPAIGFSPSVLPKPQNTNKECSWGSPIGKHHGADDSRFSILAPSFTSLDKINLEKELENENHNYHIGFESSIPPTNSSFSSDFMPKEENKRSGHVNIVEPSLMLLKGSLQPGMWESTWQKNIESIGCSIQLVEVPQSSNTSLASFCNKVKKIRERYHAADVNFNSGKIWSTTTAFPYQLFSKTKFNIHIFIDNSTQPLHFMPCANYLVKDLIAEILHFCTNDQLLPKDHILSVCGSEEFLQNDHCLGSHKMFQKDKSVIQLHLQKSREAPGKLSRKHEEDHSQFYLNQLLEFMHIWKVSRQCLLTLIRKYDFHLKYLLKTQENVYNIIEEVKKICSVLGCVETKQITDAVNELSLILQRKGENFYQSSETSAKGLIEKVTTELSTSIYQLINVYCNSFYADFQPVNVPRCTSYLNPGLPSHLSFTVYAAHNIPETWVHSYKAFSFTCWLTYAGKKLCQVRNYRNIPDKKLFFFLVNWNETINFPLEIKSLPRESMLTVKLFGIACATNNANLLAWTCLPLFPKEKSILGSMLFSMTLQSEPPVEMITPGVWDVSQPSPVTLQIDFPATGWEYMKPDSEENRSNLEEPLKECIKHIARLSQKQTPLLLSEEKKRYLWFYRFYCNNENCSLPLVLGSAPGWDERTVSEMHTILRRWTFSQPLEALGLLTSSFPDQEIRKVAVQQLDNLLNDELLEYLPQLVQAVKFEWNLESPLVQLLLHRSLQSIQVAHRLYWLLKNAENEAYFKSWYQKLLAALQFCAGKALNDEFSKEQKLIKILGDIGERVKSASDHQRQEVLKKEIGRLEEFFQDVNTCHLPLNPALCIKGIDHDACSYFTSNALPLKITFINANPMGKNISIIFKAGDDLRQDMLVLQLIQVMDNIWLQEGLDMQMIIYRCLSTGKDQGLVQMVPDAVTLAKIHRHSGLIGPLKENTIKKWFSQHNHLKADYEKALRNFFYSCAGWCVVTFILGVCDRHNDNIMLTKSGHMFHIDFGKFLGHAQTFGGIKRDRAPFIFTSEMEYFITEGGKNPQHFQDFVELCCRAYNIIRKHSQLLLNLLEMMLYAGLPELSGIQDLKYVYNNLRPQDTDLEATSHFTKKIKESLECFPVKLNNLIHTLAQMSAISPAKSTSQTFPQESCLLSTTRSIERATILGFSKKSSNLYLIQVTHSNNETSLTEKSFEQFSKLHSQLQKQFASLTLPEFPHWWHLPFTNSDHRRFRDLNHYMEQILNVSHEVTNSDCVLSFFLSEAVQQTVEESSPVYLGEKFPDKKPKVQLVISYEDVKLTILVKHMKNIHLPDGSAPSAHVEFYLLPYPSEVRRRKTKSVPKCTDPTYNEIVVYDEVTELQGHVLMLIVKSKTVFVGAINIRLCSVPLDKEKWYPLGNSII
# T4 sequence (P21860 20-1342): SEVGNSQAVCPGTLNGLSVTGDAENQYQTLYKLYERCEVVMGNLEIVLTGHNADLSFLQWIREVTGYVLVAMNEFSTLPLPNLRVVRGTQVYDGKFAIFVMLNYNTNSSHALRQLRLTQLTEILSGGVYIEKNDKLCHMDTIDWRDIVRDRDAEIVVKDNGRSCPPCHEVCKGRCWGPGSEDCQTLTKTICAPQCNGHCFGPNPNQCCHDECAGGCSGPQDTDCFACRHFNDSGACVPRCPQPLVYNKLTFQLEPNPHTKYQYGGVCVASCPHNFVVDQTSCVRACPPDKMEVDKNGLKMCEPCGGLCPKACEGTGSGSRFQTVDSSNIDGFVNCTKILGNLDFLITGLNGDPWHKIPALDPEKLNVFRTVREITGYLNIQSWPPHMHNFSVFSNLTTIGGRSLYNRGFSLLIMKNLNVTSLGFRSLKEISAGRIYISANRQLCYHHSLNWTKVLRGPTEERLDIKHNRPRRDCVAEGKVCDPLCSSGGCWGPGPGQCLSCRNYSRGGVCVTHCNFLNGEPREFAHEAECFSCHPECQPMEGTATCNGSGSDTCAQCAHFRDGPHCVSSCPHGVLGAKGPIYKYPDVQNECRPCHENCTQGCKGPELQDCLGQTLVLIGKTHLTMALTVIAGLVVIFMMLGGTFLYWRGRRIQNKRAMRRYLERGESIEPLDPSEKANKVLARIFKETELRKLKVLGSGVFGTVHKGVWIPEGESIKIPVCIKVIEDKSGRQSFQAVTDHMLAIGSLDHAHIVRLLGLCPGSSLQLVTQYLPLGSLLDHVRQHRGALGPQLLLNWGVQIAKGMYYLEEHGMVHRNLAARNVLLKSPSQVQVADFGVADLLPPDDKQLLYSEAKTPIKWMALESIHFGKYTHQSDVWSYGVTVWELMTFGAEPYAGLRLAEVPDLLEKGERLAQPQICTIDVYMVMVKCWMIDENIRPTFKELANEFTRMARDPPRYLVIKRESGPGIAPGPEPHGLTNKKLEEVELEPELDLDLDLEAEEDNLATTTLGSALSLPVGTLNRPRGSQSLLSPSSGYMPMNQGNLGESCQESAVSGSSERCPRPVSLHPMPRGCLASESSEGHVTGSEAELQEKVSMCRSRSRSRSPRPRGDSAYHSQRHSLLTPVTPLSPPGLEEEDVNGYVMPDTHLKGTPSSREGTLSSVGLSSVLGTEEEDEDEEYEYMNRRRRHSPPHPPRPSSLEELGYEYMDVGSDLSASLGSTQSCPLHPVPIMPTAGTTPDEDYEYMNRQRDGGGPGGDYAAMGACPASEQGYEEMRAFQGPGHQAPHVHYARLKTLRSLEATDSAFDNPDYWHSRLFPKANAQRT
# T17 sequence (P11802 whole entry): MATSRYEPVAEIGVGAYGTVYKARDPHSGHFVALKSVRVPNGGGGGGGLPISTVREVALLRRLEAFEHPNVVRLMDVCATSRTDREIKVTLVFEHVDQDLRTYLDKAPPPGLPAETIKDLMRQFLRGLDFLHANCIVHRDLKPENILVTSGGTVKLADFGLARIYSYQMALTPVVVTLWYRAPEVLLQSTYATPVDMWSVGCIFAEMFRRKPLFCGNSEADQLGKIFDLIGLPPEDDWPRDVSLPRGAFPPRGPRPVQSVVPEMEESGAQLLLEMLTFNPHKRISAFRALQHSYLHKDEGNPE
compound,measurement,setting,value
CCN1CCN(Cc2ccc(NC(=O)c3ccc(C)c(NC(=O)c4cncc(-c5cccs5)c4)c3)cc2C(F)(F)F)CC1 [ALW-II-41-27],remaining binding at 10 µM,KinomeScan kinase panel [1],> 30%
same,remaining binding at 10 µM,KinomeScan kinase panel [2],> 30%
same,remaining binding at 10 µM,KinomeScan kinase panel [3],> 30%
same,remaining binding at 10 µM,KinomeScan kinase panel [4],> 30%
same,remaining binding at 10 µM,KinomeScan kinase panel [5],> 30%
same,remaining binding at 10 µM,KinomeScan kinase panel [6],17%
same,remaining binding at 10 µM,KinomeScan kinase panel [7],> 30%
same,remaining binding at 10 µM,KinomeScan kinase panel [8],0.15%
same,remaining binding at 10 µM,KinomeScan kinase panel [9],25%
same,remaining binding at 10 µM,KinomeScan kinase panel [10],> 30%
same,remaining binding at 10 µM,KinomeScan kinase panel [11],> 30%
same,remaining binding at 10 µM,KinomeScan kinase panel [12],3.8%
"CCN1CCN(Cc2ccc(NC(=O)c3ccc(C)c(/C=C/c4cnc5[nH]ccc5c4Cl)c3)cc2C(F)(F)F)CC1 [HG-6-63-01, (E)-3-(2-(4-chloro-1H-pyrrolo[2,3-b]pyridin-5-yl)vinyl)-N-(4-((4-ethylpiperazin-1-yl)methyl)-3-(trifluoromethyl)phenyl)-4-methylbenzamide]",score (%),KinomeScan kinase panel [13],nb (Hits values higher than 30% were considered negative (no binding: nb))
CCN1CCN(Cc2ccc(NC(=O)c3ccc(C)c(C#Cc4cccnc4)c3)cc2C(F)(F)F)CC1 [XMD15-44],remaining binding at 10 µM,KinomeScan kinase panel [14],> 30%
same,remaining binding at 10 µM,KinomeScan kinase panel [1],100%
same,remaining binding at 10 µM,KinomeScan kinase panel [2],12%
same,remaining binding at 10 µM,KinomeScan kinase panel [3],48%
same,remaining binding at 10 µM,KinomeScan kinase panel [15],27%
same,remaining binding at 10 µM,KinomeScan kinase panel [16],6%
same,remaining binding at 10 µM,"KinomeScan kinase panel [17]; CDK4-cyclinD1, 10 µM",21%
same,remaining binding at 10 µM,"KinomeScan kinase panel [17]; CDK4-cyclinD3, 10 µM",> 30%
same,remaining binding at 10 µM,KinomeScan kinase panel [4],> 30%
same,remaining binding at 10 µM,KinomeScan kinase panel [18],11%
same,remaining binding at 10 µM,KinomeScan kinase panel [19],42%
same,remaining binding at 10 µM,KinomeScan kinase panel [5],100%
same,remaining binding at 10 µM,KinomeScan kinase panel [20],> 30%
same,remaining binding at 10 µM,KinomeScan kinase panel [6],1.2%
same,remaining binding at 10 µM,KinomeScan kinase panel [21],53%
same,remaining binding at 10 µM,KinomeScan kinase panel [22],6.4%
same,score (%),KinomeScan kinase panel [13],0.95%
same,remaining binding at 10 µM,KinomeScan kinase panel [7],> 30%
same,remaining binding at 10 µM,KinomeScan kinase panel [8],> 30%
same,score (%),KinomeScan kinase panel [23],6.5%
same,remaining binding at 10 µM,KinomeScan kinase panel [24],3.4%
same,remaining binding at 10 µM,KinomeScan kinase panel [25],7.5%
same,remaining binding at 10 µM,KinomeScan kinase panel [26],95%
same,remaining binding at 10 µM,KinomeScan kinase panel [9],2.2%
same,remaining binding at 10 µM,KinomeScan kinase panel [27],9.1%
same,remaining binding at 10 µM,KinomeScan kinase panel [28],100%
same,remaining binding at 10 µM,KinomeScan kinase panel [29],6.2%
same,remaining binding at 10 µM,KinomeScan kinase panel [10],18%
same,remaining binding at 10 µM,KinomeScan kinase panel [30],34%
same,score (%),KinomeScan kinase panel [31],nb (Hits values higher than 30% were considered negative (no binding: nb))
same,remaining binding at 10 µM,KinomeScan kinase panel [11],89%
same,remaining binding at 10 µM,KinomeScan kinase panel [32],0.15%
same,remaining binding at 10 µM,KinomeScan kinase panel [12],0.15%
same,remaining binding at 10 µM,KinomeScan kinase panel [33],0.05%

# — paper PMC4457528, “Identification of Novel Small Molecule Inhibitors of Oncogenic RET Kinase” (PLoS ONE, 2015)
